Assay results as given in patent US20240292835A1, “Methods, Compositions and Devices for Insect Control” (Agriculture Victoria Services PTY LTD, priority 2020, published 2024).

Key:
Format in all cases: in vivo, Carpophilus truncatus
C. truncatus antennae = test: GC-EAD (gas chromatography coupled with electroantennography) screening of odour and pheromone septa extracts; details: for EAD: compounds in solvent extracts of commercial pheromone septa, key not given, antennae responded to all but one
Protocol: Pheromone compounds and other biologically active compounds present in odour extracts were screened by Gas Chromatography coupled with electroantennography (GC-EAD). The same GC setup used for chemical analysis was used in conjunction with an electroantennograph (Ockenfels Syntech GmbH, Germany). An apolar column SLB-5 MS (30 m×0.32 mm×0.25 μm) used as analytical column was connected to a CFT splitter plate (Capillary Flow Technology, Agilent). A constant flow of helium (1 mL/min) used as carrier and make-up gas was maintained towards the mass spectrometer. […] The EAD restrictor was fitted in a 50 cm transfer line (Ockenfels Syntech GmbH, Germany) heated at 250° C. allowing only the last 2 mm segment of the restrictor to protrude inside a glass mixing tube (3.8 mm inner diameter) positioned above the insect preparation and in which a 29 cm/s stream of purified air was applied. The described setup allowed relatively well-synced signals between all three detectors. One-week-old beetles were anesthetized on ice and immobilised in a micropipette tip with a cotton plug, with the upper part of the abdomen exposed. A sharp glass electrode filled with an electrolyte (0.1 N KCl, 3% PVP) was inserted into the head of the beetle (reference) while a similar electrode was positioned on the disc-shaped distal end of the antenna using a micromanipulator (FIG. 1). The antennal signal was amplified and recorded using an IDAC-4 (Ockenfels Syntech, Germany). When a good contact was obtained (checked via a 1% isopentyl acetate “puff” stimulation), an aliquot of volatile extract was injected in the GC and the sensitivity or lack thereof to individual compounds was determined by the overlay of MS/FID and EAD signals. Beetle odour extracts as well as extracts from commercial synthetic Carpophilus pheromones were screened by coupled gas chromatography-electroantennographic detection (GC-EAD) to test for beetle sensitivity to the putative pheromone and those of other Carpophilus species (FIG. 9).

[1] = test system: C. truncatus male and female adult beetles; test: Y-tube olfactometer bioassays with isolated pheromone fractions; details: 20 μl isolated fraction vs hexane control, diet odour in both arms
Protocol: Beetle orientation to different test odours was tested in a Y-tube glass olfactometer (ID: 2 cm, 10 cm stem and 7.5 cm choice arm length, 70° angle between arms) placed on a thick white paper sheet. All the experiments were conducted in a Controlled Environment Room at 28° C. The olfactometer was placed at a 30° angle to take advantage of beetles' natural negative geotaxis. Both arms of the Y-tube were connected via glass connectors or PTFE tubing to air-tight glass chambers in which different odours were applied. Activated charcoal-filtered air was circulated through the glass chambers entraining test odours to the choice arms of the Y-tube at 400 mL/min. The olfactometer was illuminated from above by dimmable fluorescent light tubes (Fititron, Weiss Gallenkamp, UK) covered by a sheet of UV-permitting diffusing white screen paper (Rosco 216, Germany). Light intensity at both ends of the two choice arms was measured and adjusted to 990 lux using a digital lux meter. Beetles were released individually in the olfactometer's main stem and observed for 10 min. Individuals that crossed the middle of either test arms (4 cm inside the arm; empirically designated as a non-return point) were considered to have made a choice. […] Preferences for male or female odours were assessed in a similar way by testing the beetle's orientation when simultaneous exposed to male and female beetle-infested diet. […]

C. truncatus [2] = test: Laboratory dual-choice cage bioassays of co-attractant solutions; details: Experiment #2: solution lacking one component vs full commercial co-attractant (CL)
Protocol: Cage bioassays were developed for the rapid screening of beetle attraction to prototype co-attractant solutions. Adult beetles were separated in groups of hundred individuals (mixed sex) and starved for 48 h in (30 cm×30 cm×30 cm) mesh cages in Controlled Environment rooms (29° C., 60% RH, 16L:8D Photoperiod). Two plastic traps made from 30 mL plastic cups comprising four 5-mm holes equidistantly distributed along their circumference and a single hole in the lid were filled with 20 mL of freshly prepared test co-attractant solutions (FIG. 2) and placed inside the mesh cage approximately 15-20 cm apart. Beetles were allowed 48 h to choose between the two solutions. At the end of the experiments, traps were collected in plastic containers and beetles inside each treatment cups (alive or drowned) as well as non-selecting individuals were counted. Experiments were replicated a minimum of ten times for each prototype solution. An attraction index, used to determine the degree of attraction or deterrence of the test solution in comparison to the control, was calculated as follows: (n beetles in test solution)−(n beetles in control)/total n beetles. Attraction indices returned values ranging between −1 (extreme repellence) and +1 (extreme attraction); 0 corresponding to the absence of preference for either solutions. Deviation of the indices from zero was analysed using two tailed t-tests. Cage bioassays were used to test the attraction of C. truncatus to the commercial co-attractant (co-attractant vs water) and to screen the influence of individual constituents of the commercial Carpophilus co-attractant on C. truncatus attraction. The effect of different constituents was assessed by testing the co-attractant (control) against test co-attractant solutions in which one constituent was excluded.
In a first cage experiment (Experiment #1, table 4), the attraction of C. truncatus attraction to the commercial co-attractant (CL) was verified using water as a control treatment (FIG. 14).
In a second experiment (Experiment #2, table 4), the influence of individual components of the commercial co-attractant on C. truncatus was assessed by testing beetle's preferences between test co-attractant solutions in which a single compound was missing against the full formulation.

C. truncatus [3] = test: Field trials in almond orchards, black funnel traps; details: field trial #3a; simplified co-attractant; FIG. 19
Protocol: All field trials were conducted in commercial almond orchards located in Mildura area (Victoria, Australia) between 2018 and 2020. Treatments were tested in black funnel traps (supplied by Bugs for Bugs; https://bugsforbugs.com.au/product/Carpophilus-[…]/) placed at ground level and secured using metal fence […] deeply anchored in the soil (FIG. 3). This differs from the conventional use of these traps in stone fruits where traps are suspended on […] 1.5 m height and derives from pilot experiments showing that more C. truncatus are caught when traps are placed on the ground (FIG. 5). An insecticidal strip (dichlorovos) was placed inside the traps to kill captured beetles. […] Beetles responses to different odours in Y-tube olfactometer experiments were analysed using binomial tests, assuming a distribution ratio of 1:1 between the two choice arms as the null-hypothesis. […] The deviation from zero of the attraction indices calculated in cage bioassays was analysed using paired t-tests. Field trial data were analysed as the mean weekly catches per trap over the period of the trials (between 2-6 weeks depending on beetle population density) using generalized linear mixed model fitted with a negative binomial distribution. […]

## C/C=C/C(=C/C(C)=C/C(C)=C/C)CC [Pheromone 1, (2E,4E,6E,8E)-7-Ethyl-3,5-dimethyl-2,4,6,8-decatetraene]
C. truncatus antennae
  EAD: ✓
[1]
  attraction in Y-tube olfactometer: more attractive than pheromone 2

## CC=O [acetaldehyde]
C. truncatus [2]
  effect of individual component of commercial co-attractant on C. truncatus: deterrent effect

## CCC(C)CO (stereo not shown) [2-methylbutanol]
C. truncatus [2]
  effect of individual component of commercial co-attractant on C. truncatus: deterrent effect

## C/C=C/C(C)=C/C(C)=C/C(C)=C/C [(2E,4E,6E,8E)-3,5,7-Trimethyl-2,4,6,8-decatetraene]
C. truncatus antennae
  EAD: ✓

## CCOC(C)=O [ethyl acetate]
C. truncatus [2]
  effect of individual component of commercial co-attractant on C. truncatus: deterrent effect

## C/C=C(C)/C=C(/C=C/CC)CC [(2E,4E,6E)-5-ethyl-3-methyl-2,4,6-nonatriene]
C. truncatus antennae
  EAD: ✓

## C/C=C(C)/C=C(C)/C=C(C)/C=C/CC [Pheromone 2, (2E,4E,6E,8E)-3,5,7-trimethyl-2,4,6,8-undecatetraene]
C. truncatus antennae; beetle odour extracts
  GC-EAD responses of C. truncatus males and females: strong and consistent GC-EAD responses
C. truncatus antennae
  EAD: ✓
[1]
  attraction in Y-tube olfactometer: comparable level of attraction

## CC(C)CCO [isopentyl alcohol]
C. truncatus [3]
  C. truncatus attraction at higher concentrations of isopentyl alcohol: significantly increase
C. truncatus [2]
  effect of individual component of commercial co-attractant on C. truncatus: main attractants

## CCO [ethanol]
C. truncatus [2]
  effect of individual component of commercial co-attractant on C. truncatus: main attractants

## C/C=C(C)/C=C(C)/C=C(/C=C/CC)CC [(2E,4E,6E,8E)-7-ethyl-3,5-dimethyl-2,4,6,8-undecatetraene]
C. truncatus antennae
  EAD: ✓

## CC(C)CO [isobutyl alcohol]
C. truncatus [2]
  effect of individual component of commercial co-attractant on C. truncatus: no observable effect

## CC/C=C/C(=C/C(C)=C/CC)CC [(3E,5E,7E)-6-ethyl-4-methyl-3,5,7-decatriene]
C. truncatus antennae
  EAD: ✓
